Reference: US12448395B2 (BRISTOL-MYERS SQUIBB COMPANY, priority 2019, dated 2025)
Where a name gives a salt, the structure may show the parent alone. Blank lines part the entries; values can stand above or below the compound they belong to.

How the values were obtained:
[1] = molecular target: T1, human TLR7 (Homo sapiens, UniProt Q9NYK1); assay: TLR7 inhibition reporter assay (HEK-Blue SEAP, gardiquimod stimulation); type: cell-based; conditions: HEK-Blue cells overexpressing human TLR7, gardiquimod 7.5 μM
T1 sequence (Q9NYK1 27-1049): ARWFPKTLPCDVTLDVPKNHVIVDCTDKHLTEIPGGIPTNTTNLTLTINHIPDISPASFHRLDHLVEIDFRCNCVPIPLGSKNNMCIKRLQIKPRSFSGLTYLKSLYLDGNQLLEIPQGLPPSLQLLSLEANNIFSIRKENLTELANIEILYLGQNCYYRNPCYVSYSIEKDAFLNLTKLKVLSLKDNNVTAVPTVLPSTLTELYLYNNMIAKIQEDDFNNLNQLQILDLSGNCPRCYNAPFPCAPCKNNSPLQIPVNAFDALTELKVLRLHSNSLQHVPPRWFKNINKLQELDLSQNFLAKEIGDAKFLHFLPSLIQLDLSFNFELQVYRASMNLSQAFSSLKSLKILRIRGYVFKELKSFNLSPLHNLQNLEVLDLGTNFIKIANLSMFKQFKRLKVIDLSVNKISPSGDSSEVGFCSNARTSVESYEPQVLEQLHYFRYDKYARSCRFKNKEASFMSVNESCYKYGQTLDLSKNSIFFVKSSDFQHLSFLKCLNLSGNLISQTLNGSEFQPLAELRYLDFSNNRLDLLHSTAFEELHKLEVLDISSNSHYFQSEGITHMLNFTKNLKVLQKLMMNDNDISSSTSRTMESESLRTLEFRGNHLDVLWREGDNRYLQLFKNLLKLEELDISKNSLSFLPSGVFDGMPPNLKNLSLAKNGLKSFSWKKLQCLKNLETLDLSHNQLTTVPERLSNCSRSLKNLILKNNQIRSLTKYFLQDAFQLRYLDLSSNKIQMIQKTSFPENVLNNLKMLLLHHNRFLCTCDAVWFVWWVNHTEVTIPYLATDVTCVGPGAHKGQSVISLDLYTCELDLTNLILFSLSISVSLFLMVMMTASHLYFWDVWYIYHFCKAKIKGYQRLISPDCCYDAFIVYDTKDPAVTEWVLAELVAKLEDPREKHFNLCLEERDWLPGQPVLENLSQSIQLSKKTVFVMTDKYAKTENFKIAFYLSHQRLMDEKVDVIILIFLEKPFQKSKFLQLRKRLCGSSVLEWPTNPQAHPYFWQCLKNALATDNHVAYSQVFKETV
Experimental: (§1) TLR7/8/9 Inhibition Reporter Assays
(§2) HEK-Blue™-cells (Invivogen) overexpressing human TLR7, TLR8 or TLR9 receptors were used for screening inhibitors of these receptors using an inducible SEAP (secreted embryonic alkaline phosphatase) reporter gene under the control of the IFN-β minimal promoter fused to five NF-κB and AP-1-binding sites. Briefly, cells are seeded into Greiner 384 well plates (15000 cells per well for TLR7, 20,000 for TLR8 and 25,000 for TLR9) and then treated with test compounds in DMSO to yield a final dose response concentration range of 0.05 nM-50 μM. After a 30 minute compound pre-treatment at room temperature, the cells are then stimulated with a TLR7 ligand (gardiquimod at a final concentration of 7.5 μM), TLR8 ligand (R848 at a final concentration of 15.9 μM) or TLR9 ligand (ODN2006 at a final concentration of 5 nM) to activate NF-κB and AP-1 which induce the production of SEAP. After a 22 hour incubation at 37° C., 5% CO2, SEAP levels are determined with the addition of HEK-Blue™ Detection reagent (Invivogen), a cell culture medium that allows for detection of SEAP, according to manufacturer's specifications. The percent inhibition is determined as the % reduction in the HEK-Blue signal present in wells treated with agonist plus DMSO alone compared to wells treated with a known inhibitor.

[2] = molecular target: T2, human TLR8 (Homo sapiens, UniProt Q9NR97); assay: TLR8 inhibition reporter assay (HEK-Blue SEAP, R848 stimulation); type: cell-based; conditions: HEK-Blue cells overexpressing human TLR8, R848 15.9 μM
T2 sequence (Q9NR97 27-1041): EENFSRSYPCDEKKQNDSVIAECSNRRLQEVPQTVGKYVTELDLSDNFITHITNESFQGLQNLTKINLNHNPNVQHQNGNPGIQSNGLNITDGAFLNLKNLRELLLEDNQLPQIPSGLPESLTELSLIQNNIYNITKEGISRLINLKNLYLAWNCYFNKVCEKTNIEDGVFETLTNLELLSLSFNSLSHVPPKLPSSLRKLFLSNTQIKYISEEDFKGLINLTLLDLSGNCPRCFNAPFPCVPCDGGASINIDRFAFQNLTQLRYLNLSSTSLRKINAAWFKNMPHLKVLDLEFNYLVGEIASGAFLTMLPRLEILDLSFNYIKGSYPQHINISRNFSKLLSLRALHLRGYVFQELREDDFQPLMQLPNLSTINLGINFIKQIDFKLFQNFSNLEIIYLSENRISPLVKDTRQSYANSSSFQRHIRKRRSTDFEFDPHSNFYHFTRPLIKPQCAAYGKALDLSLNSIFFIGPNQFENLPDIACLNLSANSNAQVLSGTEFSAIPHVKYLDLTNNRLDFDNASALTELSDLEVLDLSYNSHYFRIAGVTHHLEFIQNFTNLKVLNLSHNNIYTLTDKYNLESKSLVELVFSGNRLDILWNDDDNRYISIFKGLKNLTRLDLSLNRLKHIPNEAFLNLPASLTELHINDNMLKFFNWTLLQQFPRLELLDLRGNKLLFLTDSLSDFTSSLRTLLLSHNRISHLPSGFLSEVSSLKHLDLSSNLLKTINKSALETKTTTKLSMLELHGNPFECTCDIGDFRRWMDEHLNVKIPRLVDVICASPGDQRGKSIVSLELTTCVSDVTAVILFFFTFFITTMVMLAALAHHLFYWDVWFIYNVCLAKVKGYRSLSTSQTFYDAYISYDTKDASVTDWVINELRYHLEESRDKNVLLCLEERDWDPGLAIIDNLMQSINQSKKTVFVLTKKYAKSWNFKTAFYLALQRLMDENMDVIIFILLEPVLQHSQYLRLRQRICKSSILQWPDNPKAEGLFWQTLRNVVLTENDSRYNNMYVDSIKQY
Experimental: as §1, §2

[3] = molecular target: T3, human TLR9 (Homo sapiens, UniProt Q9NR96); assay: TLR9 inhibition reporter assay (HEK-Blue SEAP, ODN2006 stimulation); type: cell-based; conditions: HEK-Blue cells overexpressing human TLR9, ODN2006 5 nM
T3 sequence (Q9NR96 26-1032): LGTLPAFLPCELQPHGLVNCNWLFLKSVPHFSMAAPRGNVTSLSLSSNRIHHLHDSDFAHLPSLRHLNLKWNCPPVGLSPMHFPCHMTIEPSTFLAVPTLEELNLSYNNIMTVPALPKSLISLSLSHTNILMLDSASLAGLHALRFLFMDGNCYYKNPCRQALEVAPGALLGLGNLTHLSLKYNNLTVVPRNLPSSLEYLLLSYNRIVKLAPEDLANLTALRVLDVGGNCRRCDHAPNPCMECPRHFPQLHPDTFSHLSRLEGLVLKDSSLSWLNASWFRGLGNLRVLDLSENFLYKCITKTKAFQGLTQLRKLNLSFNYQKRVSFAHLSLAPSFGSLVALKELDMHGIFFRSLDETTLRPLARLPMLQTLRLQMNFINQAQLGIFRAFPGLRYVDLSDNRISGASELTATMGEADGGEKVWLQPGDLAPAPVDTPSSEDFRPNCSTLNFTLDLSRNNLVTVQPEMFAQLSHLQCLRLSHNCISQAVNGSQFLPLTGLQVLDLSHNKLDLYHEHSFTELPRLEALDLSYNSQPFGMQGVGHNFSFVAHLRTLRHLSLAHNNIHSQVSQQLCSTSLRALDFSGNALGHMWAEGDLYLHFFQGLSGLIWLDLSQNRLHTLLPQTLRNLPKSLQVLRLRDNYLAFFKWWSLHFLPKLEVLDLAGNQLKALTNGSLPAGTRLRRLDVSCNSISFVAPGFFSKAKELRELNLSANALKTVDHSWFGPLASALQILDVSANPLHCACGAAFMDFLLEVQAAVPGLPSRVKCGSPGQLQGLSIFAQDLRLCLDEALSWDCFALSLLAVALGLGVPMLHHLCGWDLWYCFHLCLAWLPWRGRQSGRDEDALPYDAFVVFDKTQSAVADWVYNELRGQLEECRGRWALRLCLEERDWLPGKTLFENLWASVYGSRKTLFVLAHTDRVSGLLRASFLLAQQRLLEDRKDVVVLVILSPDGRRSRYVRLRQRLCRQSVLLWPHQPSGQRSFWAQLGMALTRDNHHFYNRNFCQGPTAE
Method in brief: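 HEK-Blue cells overexpressing human TLR7, TLR8 or TLR9 carry a SEAP reporter driven by NF-κB/AP-1 sites. Compounds (0.05 nM–50 μM) were preincubated 30 min at room temperature, then cells were stimulated with gardiquimod 7.5 μM (TLR7), R848 15.9 μM (TLR8) or ODN2006 5 nM (TLR9) for 22 h at 37 °C.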

[4] = molecular target: T4, TLR7 (Mus musculus, UniProt P58681); assay: In vivo mouse TLR7 PD model (gardiquimod-induced plasma IL-6 and IFN-alpha); conditions: C57BL/6 mice, 90 min after gardiquimod
T4 sequence (P58681 27-1050): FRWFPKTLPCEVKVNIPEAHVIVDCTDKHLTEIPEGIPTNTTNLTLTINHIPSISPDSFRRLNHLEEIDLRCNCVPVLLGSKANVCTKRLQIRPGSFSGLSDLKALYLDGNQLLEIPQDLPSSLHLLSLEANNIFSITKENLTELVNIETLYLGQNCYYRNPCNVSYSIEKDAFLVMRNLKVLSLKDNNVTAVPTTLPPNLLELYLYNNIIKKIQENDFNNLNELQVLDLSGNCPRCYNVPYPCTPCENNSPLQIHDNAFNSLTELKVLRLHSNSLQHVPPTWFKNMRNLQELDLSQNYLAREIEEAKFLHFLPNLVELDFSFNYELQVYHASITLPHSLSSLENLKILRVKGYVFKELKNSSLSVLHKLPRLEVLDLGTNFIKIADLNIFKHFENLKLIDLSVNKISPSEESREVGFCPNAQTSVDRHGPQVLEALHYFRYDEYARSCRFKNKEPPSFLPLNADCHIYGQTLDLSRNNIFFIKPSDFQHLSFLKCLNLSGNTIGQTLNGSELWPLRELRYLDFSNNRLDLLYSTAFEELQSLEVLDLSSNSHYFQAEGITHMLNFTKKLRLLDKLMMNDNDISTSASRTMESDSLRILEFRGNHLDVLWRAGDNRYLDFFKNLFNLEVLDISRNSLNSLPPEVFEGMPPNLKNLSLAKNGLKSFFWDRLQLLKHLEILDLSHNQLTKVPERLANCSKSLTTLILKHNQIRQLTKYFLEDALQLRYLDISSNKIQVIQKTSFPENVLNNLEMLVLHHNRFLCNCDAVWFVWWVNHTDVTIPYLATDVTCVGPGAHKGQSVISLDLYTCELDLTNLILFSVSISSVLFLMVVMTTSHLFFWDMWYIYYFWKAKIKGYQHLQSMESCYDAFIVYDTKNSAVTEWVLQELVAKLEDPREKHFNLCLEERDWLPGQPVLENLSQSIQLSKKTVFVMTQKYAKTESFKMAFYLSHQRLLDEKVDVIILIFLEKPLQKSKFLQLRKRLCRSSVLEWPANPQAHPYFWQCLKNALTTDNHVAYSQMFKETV
Experimental: In Vivo Mouse TLR7 PD Model:
Adult male C57BL/6 mice were used for the experiments. Mice (7 to 10 per group) were randomized into different treatment groups based on body weight. Mice from the respective treatment groups were administered orally with vehicle or test compound. Thirty min after the oral administration of vehicle or test compound, mice were challenged with intraperitoneal injection of gardiquimod for TLR7 PD model. Ninety minutes after gardiquimod injection, mice were bled under isoflurane anaesthesia and plasma IL-6 and IFN-alpha levels were estimated by using commercially available ELISA kit (BD Biosciences, PBL Life Sciences). At the end of experiment, mean cytokine data was plotted and one way ANOVA with Dunnett's test was performed to calculate the significance of test compound treated group vs. vehicle control group. Percent inhibition of cytokine induction was calculated for test compound treated group vs vehicle control group.

- IC50 [1]: > 3.13 µM
- IC50 [2]: > 3130 nM
Structure (SMILES): Cc1cc(-c2[nH]c3sc(N4CCN(C5CCC5)C[C@H]4C)nc3c2C(C)C)cn2ncnc12 [Example 362, (R)-2-(4-cyclobutyl-2-methylpiperazin-1-yl)-6-isopropyl-5-(8-methyl-[1,2,4]triazolo[1,5-a]pyridin-6-yl)-4H-pyrrolo[3,2-d]thiazole]

- IC50 [1]: 0.00018 µM
- IC50 [2]: 0.09 nM
- IC50 [3]: 15.8 µM
Structure (SMILES): Cc1c(-c2[nH]c3sc(N4CCNC[C@H]4C)nc3c2C(C)C)cn2ncnc2c1C [Example 308, (R)-5-(7,8-dimethyl-[1,2,4]triazolo[1,5-a]pyridin-6-yl)-6-isopropyl-2-(2-methylpiperazin-1-yl)-4H-pyrrolo[3,2-d]thiazole, HCl]

- % inhibition of IFN-alpha ([4]; oral dose 0.001 mg/kg): 50%
- % inhibition of IL6 ([4]; oral dose 0.001 mg/kg): 21%
- % inhibition of IFN-alpha ([4]; oral dose 0.005 mg/kg): 63%
- % inhibition of IL6 ([4]; oral dose 0.005 mg/kg): 42%
- % inhibition of IFN-alpha ([4]; oral dose 0.025 mg/kg): 97%
- % inhibition of IL6 ([4]; oral dose 0.025 mg/kg): 78%
- % inhibition of IFN-alpha ([4]; oral dose 0.050 mg/kg): 99%
- % inhibition of IL6 ([4]; oral dose 0.050 mg/kg): 94%
Structure (SMILES): COc1cc(-c2[nH]c3sc(C4CCC(NC5COC5)CC4)nc3c2C(C)C)cn2ncnc12 (single isomer, unassigned) [Example 65, N-(4-(6-isopropyl-5-(8-methoxy-[1,2,4]triazolo[1,5-a]pyridin-6-yl)-4H-pyrrolo[3,2-d]thiazol-2-yl)cyclohexyl)oxetan-3-amine]

- IC50 [1]: > 3.13 µM
- IC50 [2]: > 3130 nM
Structure (SMILES): COc1cc(-c2c(C(C)C)c3nc(C4CCN(CC(F)(F)F)CC4)sc3n2CC(F)(F)F)cn2ncnc12 [Example 9, 6-isopropyl-5-(8-methoxy-[1,2,4]triazolo[1,5-a]pyridin-6-yl)-4-(2,2,2-trifluoroethyl)-2-(1-(2,2,2-trifluoroethyl)piperidin-4-yl)-4H-pyrrolo[3,2-d]thiazole]
